Source: patent publication US8426589B2, “Process for production of quinazoline derivative” (Shionogi & Co., Ltd., priority 2008, dated 2013)

Assay: Stability test of the crystalline form (sealed glass vial, HPLC)
Type: physicochemical
Description: The crystalline form of the compound (IV) monohydrate was sealed in a glass vial and allowed it to stand for 20 days to determine the quality change before and after the test. Under heating at 50° C. (for 21 hr) or 80° C. (for 9 hr) were also conducted.
The quality degradation was not seen for the crystalline form of the compound (IV) monohydrate after 20 days and neither at 50° C. nor 80° C.
HPLC condition: Column Unison UK-C18 3 μm;
Mobile phase: 0.1% trifuluoroacetic acid aq. in acetnitrile;
Column temperature: 30° C.
Detector: UV spectrophotometer (254 nm)

For `CC#CC(=O)c1ccc2ncnc(Nc3ccc(OCc4cccc(F)c4)c(Cl)c3)c2c1` [compound (IV) monohydrate, 4-(3-chloro-4-(3-fluorobenzyloxy)phenylamino)-6-(1-oxo-2-butyn-1-yl)quinazoline], the “remaining ratio (HPLC, peak at Retention Time 10.2 min)” value (shortened to “remaining ratio”) (ca. 50° C., 15 h) was 99.2, the “remaining ratio” value (ca. 50° C., 21 h) was 99.1 and the “remaining ratio” value (ca. 50° C., Control (before the test)) was 99.4. For the same compound, the “remaining ratio” value (ca. 80° C., 3 h) was 99.1, the “remaining ratio” value (ca. 80° C., 9 h) was 99.1 and the “remaining ratio” value (ca. 80° C., Control (before the test)) was 99.1. The quality degradation (heating at 50° C. (for 21 hr)) was “not seen”, the quality degradation (heating at 80° C. (for 9 hr)) was “not seen” and the “remaining ratio” value (rt (ca. 22° C.), sealed in a glass vial, 20 days) was 99.3. The “remaining ratio” value (rt (ca. 22° C.), sealed in a glass vial, Control (before the test)) was 99.1 and the quality degradation (sealed in a glass vial, after 20 days) was “not seen”.
